Like-named read-outs stand apart in the source and are kept apart here.
Key:
[1] = test system: PAXF1657 control empty vector cell line; assay: 7-day proliferation assay, PAXF1657 control empty vector cell line (Example 9); type: cell-based; conditions: 168 h; Cell Line: PAXF1657 empty vector (EV) cell line; 7-day; read-out: C: 7-day proliferation assay: IC50 GeoMean
Procedure, shortened: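 Isogenic PAXF1657 pairs differing in GRK2 level (stable cDNA overexpression or CRISPR knockout, each with matched control) are seeded and allowed to attach overnight. Inhibitors span 30 μM-0.0002 μM in 0.3% DMSO for 3 plus 4 days at 37° C, 5% CO2, with a medium change between.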

[2] = target: T1, GRK2 (Homo sapiens, UniProt P25098); assay: ADPGlo GRK2 Inhibition Assay (Example 8); type: biochemical; conditions: read-out: A: Enzymatic GRK2: IC50 (nM) (Example 8)
T1 construct: purchased SignalChem A14-10G
T1 sequence (P25098 1-689): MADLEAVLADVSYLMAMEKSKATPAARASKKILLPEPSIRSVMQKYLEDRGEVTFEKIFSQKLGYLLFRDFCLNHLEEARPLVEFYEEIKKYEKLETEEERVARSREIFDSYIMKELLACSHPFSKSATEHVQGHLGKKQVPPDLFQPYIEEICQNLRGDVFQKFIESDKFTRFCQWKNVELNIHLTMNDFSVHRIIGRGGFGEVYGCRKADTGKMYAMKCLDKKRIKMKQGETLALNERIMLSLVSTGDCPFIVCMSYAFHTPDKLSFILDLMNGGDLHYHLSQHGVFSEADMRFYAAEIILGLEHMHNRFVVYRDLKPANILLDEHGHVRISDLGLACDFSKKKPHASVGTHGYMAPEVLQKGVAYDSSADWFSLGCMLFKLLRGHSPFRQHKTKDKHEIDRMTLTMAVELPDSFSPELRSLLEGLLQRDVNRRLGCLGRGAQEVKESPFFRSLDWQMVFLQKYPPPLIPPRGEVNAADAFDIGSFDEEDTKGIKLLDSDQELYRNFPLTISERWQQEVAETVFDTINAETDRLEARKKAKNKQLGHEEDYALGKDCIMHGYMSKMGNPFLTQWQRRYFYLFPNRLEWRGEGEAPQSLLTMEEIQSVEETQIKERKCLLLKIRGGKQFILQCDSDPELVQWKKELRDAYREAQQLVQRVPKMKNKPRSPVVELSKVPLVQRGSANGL
Procedure, shortened: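 GRK2 (15 nM 2× enzyme solution) was preincubated 15 min with compound, then reacted 180 min at room temperature with 2× mix of 20 μM ATP plus GRKtide in HEPES pH 7.5, MgCl2, Tween-20, DTT. ADP was detected by ADP-Glo luminescence. Percent inhibition was normalised to enzyme and no-enzyme controls, with dose-response curves from threefold dilutions starting at 100 μM.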

[3] = Enzyme Assay A, ADPGlo (Example 8)

Row | SMILES | IC50 [1] [µM] | IC50 ([2]; ADPGlo GRK2 enzyme assay) [nM] | IC50 [2, 3] [nM]
1 | Cn1c(CNc2cccc(C(=O)NCc3ccc(C(F)F)nc3)c2)nnc1-c1ccncn1 | > 4.16 | 44.6 | –
2 | COc1c(C)cccc1CNC(=O)c1cccc(NCc2nnc(-c3ccncn3)n2C)c1 | 2.06 | – | 29
3 | CN1Cc2ccccc2C(NC(=O)c2cccc(NCc3nnc(-c4ccncn4)n3C)c2)C1 (stereo not drawn) | 7.67 | 45.9 | –
4 | COC[C@H](NC(=O)c1cccc(NCc2nnc(-c3ccncc3)[nH]2)c1)c1ccccn1 | 0.405 | – | 11
5 | Cc1nc(C(C)NC(=O)c2cccc(NCc3nnc(-c4ccncn4)n3C)c2)no1 (stereo not drawn) | > 30 | – | 67
6 | Cn1c(CNc2cccc(C(=O)NC3(c4ccccc4)CC3)c2)nnc1-c1ccncn1 | > 10 | – | 34
7 | Cc1ccncc1CNC(=O)c1cccc(NCc2nnc(-c3ccncn3)n2C)c1 | 0.557 | – | 13
8 | Cn1c(CNc2cccc(C(=O)NC(CCO)c3ccccc3F)c2)nnc1-c1ccncn1 (stereo not drawn) | 0.536 | 35.6 | –
9 | COc1cccc([C@@H](C)NC(=O)c2cccc(NCc3nnc(-c4ccncc4F)n3C)c2)c1 | > 30 | 181 | –
10 | CC(C)C(NC(=O)c1cccc(NCc2nnc(-c3ccncn3)n2C)c1)c1ccncc1 (stereo not drawn) | 1.17 | – | 32
11 | O=C(NC1(c2ccncn2)CC1)c1cccc(NCc2nnc(-c3ccncc3)[nH]2)c1 | > 10 | – | 13
12 | Cn1c(CNc2cccc(C(=O)NCc3ccnc(OCC(F)(F)F)c3)c2)nnc1-c1ccncn1 [drawing 339] | 3.76 | – | 17
13 | COc1ncc(Br)cc1CNC(=O)c1ccnc(NCc2nnc(-c3ccncn3)n2C)c1 | > 30 | 28.1 | –
14 | CC1Cc2cc(CNC(=O)c3cccc(NCc4nnc(-c5ccncn5)n4C)c3)ccc2O1 (stereo not drawn) [drawing 401] | 3.37 | – | 22
15 | Cn1c(CNc2cccc(C(=O)NC3CCOc4ncccc43)c2)nnc1-c1ccncn1 (stereo not drawn) | > 30 | 56.7 | –
16 | O=C(N[C@H]1COCc2ccccc21)c1cccc(NCc2nnc(-c3ccncn3)n2CCO)c1 | > 2.11 | – | 38.1
17 | Cn1c(CNc2cccc(C(=O)NCc3nc(C4CC4)no3)c2)nnc1-c1ccncn1 | 5.75 | – | 27
18 | Cn1c(CNc2cccc(C(=O)NC(c3ccncc3)C3CCC3)c2)nnc1-c1ccncn1 (stereo not drawn) | 0.136 | – | 22
19 | Cc1cc(CNC(=O)c2cccc(NCc3nnc(-c4ccncn4)n3C)c2)n(C)n1 | 4.15 | – | 17
20 | Cc1cncc(CNC(=O)c2cccc(NCc3nnc(-c4ccncn4)n3C)c2)c1 | > 30 | – | 15
21 | Cn1c(CNc2cccc(C(=O)N[C@@H]3CCOc4ccc(C(F)(F)F)cc43)c2)nnc1-c1ccncn1 | 0.594 | – | 8.09

Row | SMILES | IC50 [1] [µM] | IC50 ([2]; ADPGlo GRK2 enzyme assay) [nM] | IC50 [2, 3] [nM]
22 | CCOc1ccc(CNC(=O)c2cccc(NCc3nnc(-c4ccncn4)n3C)c2)cc1 | 1.2 | 35.3 | –
23 | COc1ncc(Br)cc1CNC(=O)c1cccc(NCc2nnc(-c3ccncn3)n2CCO)c1 | > 30 | 4.12 | –
24 | COc1cccc(C(C)NC(=O)c2cccc(NCc3nnc(-c4ccncn4)n3C)c2)c1 (stereo not drawn) [drawing 381] | 0.377 | – | 12
25 | CN(C)S(=O)(=O)c1cccc(F)c1CNC(=O)c1cccc(NCc2nnc(-c3ccncn3)n2C)c1 | 0.263 | 5.78 | –
26 | COc1ccccc1[C@H](C)NC(=O)c1cccc(NCc2nnc(-c3ccncn3)n2C)c1 | > 10 | – | 94
27 | Cn1c(CNc2cccc(C(=O)NCc3ccncc3Cl)c2)nnc1-c1ccncn1 [drawing 276] | 4.06 | – | 9.1
28 | Cn1c(CNc2cccc(C(=O)NCc3ccccc3CN3CCOCC3)c2)nnc1-c1ccncn1 | 6.71 | 71.5 | –
29 | Cc1cccnc1[C@@H](C)NC(=O)c1cccc(NCc2nnc(-c3ccncn3)n2C)c1 | 3.79 | 26 | –
30 | CNS(=O)(=O)c1cccc(F)c1CNC(=O)c1cccc(NCc2nnc(-c3ccncc3)[nH]2)c1 | 3.62 | – | 5.38
31 | Cc1cc(C)n(C)c(=O)c1CNC(=O)c1cccc(NCc2nnc(-c3ccncn3)n2C)c1 | 1.7 | 9.97 | –
32 | Cn1c(CNc2cccc(C(=O)NCc3cccc(F)c3F)c2)nnc1-c1ccncn1 | > 10 | – | 16
33 | Cn1c(CNc2cccc(C(=O)N[C@H]3COc4cc(F)ccc43)c2)nnc1-c1ccncc1F | > 30 | – | 111
34 | Cn1c(CNc2cccc(C(=O)NCc3ncccc3F)c2)nnc1-c1ccncn1 | 0.164 | – | 69
35 | Cn1c(CNc2cccc(C(=O)NCc3cccc4c3OCO4)c2)nnc1-c1ccncn1 | 0.681 | 13.2 | –
36 | Cc1ccc2c(c1)OCC[C@@H]2NC(=O)c1cccc(NCc2nnc(-c3ccncn3)n2C)c1 | 2.58 | – | > 1000
37 | COC[C@H](NC(=O)c1cccc(NCc2nnc(-c3ccncn3)n2C)c1)c1ccccn1 | > 10 | – | 54
38 | Cn1c(CNc2cccc(C(=O)NC3CCOc4ccccc43)c2)nnc1-c1ccncn1 (stereo not drawn) | 0.563 | – | 22
39 | CC(C)n1cnnc1CNC(=O)c1cccc(NCc2nnc(-c3ccncc3)[nH]2)c1 | > 10 | – | 210
40 | Cn1c(CNc2cccc(C(=O)N[C@@H]3COc4cc(F)ccc43)c2)nnc1-c1ccncc1F | 0.201 | – | 22.7
41 | Cn1c(CNc2cccc(C(=O)NCc3ccccc3-n3ccnc3)c2)nnc1-c1ccncn1 | 1.15 | 30 | –
42 | Cn1c(CNc2cccc(C(=O)N[C@H]3COCc4c(Cl)cccc43)c2)nnc1-c1ccncc1F | 0.245 | – | 21.9

Row | SMILES | IC50 [1] [µM] | IC50 ([2]; ADPGlo GRK2 enzyme assay) [nM] | IC50 [2, 3] [nM]
43 | O=C(NCc1nccc(C(F)F)n1)c1cccc(NCc2nnc(-c3ccncc3)[nH]2)c1 | > 10 | – | 27
44 | CCCCCOc1ccc2c(c1)[C@@H](NC(=O)c1cccc(NCc3nnc(-c4ccncn4)n3C)c1)CO2 | 0.236 | 8.3 | –
45 | Cn1cc(-c2cc(CNC(=O)c3cccc(NCc4nnc(-c5ccncn5)n4C)c3)ccn2)cn1 | > 30 | – | 17
46 | Cn1c(CNc2cccc(C(=O)N[C@@H]3COc4cc(F)ccc43)c2)nnc1-c1ccncn1 | 0.117 | – | 25.8
47 | CNc1ncccc1CNC(=O)c1cccc(NCc2nnc(-c3ccncn3)n2C)c1 | 1.63 | 18.3 | –
48 | Cn1c(CNc2cccc(C(=O)NCc3cccc4ncccc34)c2)nnc1-c1ccncn1 | > 10 | – | 11
49 | O=C(NCc1cn[nH]c1C(F)F)c1cccc(NCc2nnc(-c3ccncc3)[nH]2)c1 | > 10 | – | 19
50 | O=C(N[C@H]1COc2cc(F)ccc21)c1cccc(NCc2nnc(-c3ccncn3)n2CCO)c1 | 0.256 | – | 3.84
51 | Cn1c(CNc2cccc(C(=O)NCc3ccccc3S(=O)(=O)N3CCCC3)c2)nnc1-c1ccncn1 | 2.17 | 26.9 | –
52 | O=C(NCc1nnc2n1CCCC2)c1cccc(NCc2nnc(-c3ccncc3)[nH]2)c1 | > 10 | – | 48
53 | Cn1c(CNc2cccc(C(=O)NC3CC(O)c4ccccc43)c2)nnc1-c1ccncn1 (stereo not drawn) | > 30 | 65 | –
54 | CC(C)c1ocnc1CNC(=O)c1cccc(NCc2nnc(-c3ccncn3)n2C)c1 | > 10 | – | 350
55 | Cc1ccc2c(c1)C(NC(=O)c1cccc(NCc3nnc(-c4ccncn4)n3C)c1)CO2 (stereo not drawn) | 0.332 | 18.8 | –
56 | Cn1c(CNc2cccc(C(=O)NCc3ccccc3N3CCOCC3)c2)nnc1-c1ccncn1 | 3.25 | 50 | –
57 | CC(NC(=O)c1cccc(NCc2nnc(-c3ccncn3)n2C)c1)c1ncccc1Br (stereo not drawn) | > 10 | – | 9.4
58 | COc1ccc(F)c(CNC(=O)c2cccc(NCc3nnc(-c4ccncn4)n3C)c2)c1 | 0.917 | 20 | –
59 | Cn1c(CNc2cccc(C(=O)N[C@@H](CCO)c3ccccc3)c2)nnc1-c1ccncc1F | > 1.44 | 28.9 | –
60 | Cc1nc(C)c(CNC(=O)c2cccc(NCc3nnc(-c4ccncn4)n3C)c2)s1 | > 10 | – | 26
61 | CC(C)NS(=O)(=O)c1ccccc1CNC(=O)c1cccc(NCc2nnc(-c3ccncn3)n2C)c1 | > 15.9 | 65.8 | –
62 | Cn1c(CNc2cccc(C(=O)NC(CCO)c3cccc(F)c3)c2)nnc1-c1ccncn1 (stereo not drawn) | > 10 | – | 37
63 | Cn1c(CNc2cccc(C(=O)NCc3ccccc3S(C)(=O)=O)c2)nnc1-c1ccncn1 | 1.95 | 57.1 | –

Reference: patent US20230009608A1, “GRK2 INHIBITORS AND USES THEREOF” (Cygnal Therapeutics, Inc., priority 2020, published 2023)
